Data: paper PMC11833279, “Versatile Features of an Antibody Mimetic Peptide and Its Variants” (Journal of Peptide Science, 2025)
Like-named read-outs stand apart in the source and are kept apart here. Non-standard residues stand in square brackets, D forms with d. Residues, ends and D or L forms follow the SMILES beside them. *: point of attachment. Biotin = O=C1N[C@H]2[C@H](CS[C@H]2CCCCC(=O)*)N1; Ahx = NCCCCCC(=O)O; βAla = NCCC(=O)O

What was measured:
GALV‐RV = format: cell-based; conditions: read-out: GALV‐RV transduction enhancing effect EC50; Jurkat cells, GFP‐expressing GALV‐RV, peptide‐virus mix incubated 10 min, GFP by flow cytometry 2 days posttransduction; three independent experiments ± SD
Method: For the generation of GFP‐expressing γ‐retroviral vector pseudotyped with the glycoprotein of gibbon ape leukemia virus (GALV‐RV), 800,000 HEK293T cells were initially seeded and cotransfected as previously described using following plasmids:GFP‐expressing Murine leukemia virus (MLV) vector E200 pcmE26‐gfp (1.15 μg), E848 pCsGPpA‐ed (0.95 μg), and GALV glycoprotein (0.4 μg).
For the determination of transduction enhancement of GFP‐expressing GALV‐RV, 50,000 Jurkat cells (ATCC, TIB‐152) were seeded in 180 μL RPMI medium (Gibco, 11875093) supplemented with 10% inactivated fetal calf serum (FCS, Gibco, 10437028), 2 mM L‐glutamine (PAN‐Biotech, P04–80050), 100 U/mL penicillin, and 100 μg/mL streptomycin (PAN‐Biotech, P06–07050). Different concentrations of peptides were 1:1 (v/v) mixed with GALV‐RV (1280 dilution on cells) and incubated for 10 min. Subsequently, 20 μL of the virus‐peptide mix was added to cells, and 2 days posttransduction, GFP‐expression was analyzed by flow cytometry using CytoFlex (Beckmann Coulter), and the evaluation was carried out with FlowJo™ (Version 10.8.1).

HIV‐1NL4–3 [1] = format: cell-based; conditions: CEMx174 SEAP indicator cells, HIV‐1NL4–3, SEAP activity three days after infection; mean and standard error of at least three independent experiments; read-out: HIV‐1 neutralizing activity IC50
Method: The plasmid HIV‐1pBRNL4–3, kindly provided by F. Kirchhoff, Ulm, was propagated in XL‐1 Blue competent cells (Stratagene – an Agilent Technologies Division, Waldbronn, Germany) and transfected into 293 T cells using FuGENE HD (Roche, Mannheim, Germany). After 48 h, supernatants were cleared by filtering through 0.22 μm Millex‐GS units (Millipore, Schwalbach, Germany) and stored in aliquots at −80°C.
The indicator cell line CEMx174, which was kindly provided by R. E. Means and R. C. Desrosiers, contained the gene for the secreted alkaline phosphatase (SEAP) under the control of the simian immunodeficiency virus long terminal repeat. Three days after HIV‐1NL4–3 infection, cell culture supernatants were removed and analyzed for SEAP activity using the Phospha‐Light kit (Life Technologies, Darmstadt, Germany) according to the manufacturer's recommendations. Data represent mean and standard error of at least three independently performed experiments.

HIV‐1NL4–3 [2] = conditions: HIV‐1 neutralization; read-out: HIV‐1 neutralizing activity IC50; cited from earlier work
Source text: Addressing the significance of the disulfide bridge in H1H3, a linear variant (H1H3s) was generated, in which the two cysteine residues were replaced by serine (see Table 1 for peptide sequences).

Compound	IC50 (HIV‐1NL4–3 [1]) [nM]	further results
CC[C@H](C)[C@H](NC(=O)[C@@H](NC(=O)[C@H](Cc1ccccc1)NC(=O)[C@H](CC(N)=O)NC(=O)[C@H](CO)NC(=O)[C@H](Cc1ccccc1)NC(=O)[C@H](CCCNC(=N)N)NC(=O)[C@H](Cc1ccc(O)cc1)NC(=O)CNC(C)=O)C(C)C)C(=O)N[C@@H](Cc1c[nH]cn1)C(=O)N[C@@H](Cc1c[nH]c2ccccc12)C(=O)NCC(=O)NCCC(=O)NCC(=O)NCCCCCC(=O)NCC(=O)N[C@@H](CCCCNC(=O)CCCC[C@@H]1SC[C@@H]2NC(=O)N[C@@H]21)C(=O)NCC(=O)NCCCCCC(=O)N[C@@H](CO)C(=O)N[C@H](C(=O)NCC(=O)N1CCC[C@H]1C(=O)N[C@@H](Cc1ccc(O)cc1)C(=O)N[C@@H](CO)C(=O)N[C@@H](Cc1c[nH]c2ccccc12)C(=O)N[C@@H](CC(=O)O)C(=O)N[C@@H](CCCCN)C(=O)N[C@@H](CO)C(=O)N1CCC[C@H]1C(=O)N[C@@H](CCC(N)=O)C(=O)N[C@@H](CC(=O)O)C(=O)N[C@@H](CC(N)=O)C(=O)N[C@@H](Cc1ccc(O)cc1)C(=O)N[C@@H](CCSC)C(=O)N[C@@H](CC(=O)O)C(=O)N[C@@H](CO)C(N)=O)C(C)C [H1H3s‐D100^bK] (Ac-GYRFSNFVIHWG[βAla]G[Ahx]GK(Biotin)G[Ahx]SVGPYSWDKSPQDNYMDS-NH2)		EC50 (GALV‐RV): 630 ± 40 nM
CC[C@H](C)[C@H](NC(=O)[C@H](NC(=O)[C@H](Cc1ccccc1)NC(=O)[C@@H](CC(N)=O)NC(=O)[C@H](CO)NC(=O)[C@@H](Cc1ccccc1)NC(=O)[C@H](CCCNC(=N)N)NC(=O)[C@@H](Cc1ccc(O)cc1)NC(=O)CNC(C)=O)C(C)C)C(=O)N[C@H](Cc1c[nH]cn1)C(=O)N[C@@H](Cc1c[nH]c2ccccc12)C(=O)NCC(=O)NCCC(=O)NCC(=O)NCCCCCC(=O)NCC(=O)N[C@@H](CCCCNC(=O)CCCC[C@@H]1SC[C@@H]2NC(=O)N[C@@H]21)C(=O)NCC(=O)NCCCCCC(=O)N[C@H](CO)C(=O)N[C@@H](C(=O)NCC(=O)N1CCC[C@@H]1C(=O)N[C@@H](Cc1ccc(O)cc1)C(=O)N[C@H](CO)C(=O)N[C@@H](Cc1c[nH]c2ccccc12)C(=O)N[C@H](CC(=O)O)C(=O)N[C@@H](CC(=O)O)C(=O)N[C@H](CO)C(=O)N1CCC[C@H]1C(=O)N[C@H](CCC(N)=O)C(=O)N[C@@H](CC(=O)O)C(=O)N[C@H](CC(N)=O)C(=O)N[C@@H](Cc1ccc(O)cc1)C(=O)N[C@H](CCSC)C(=O)N[C@@H](CC(=O)O)C(=O)N[C@H](CO)C(N)=O)C(C)C [H1H3s‐L/D] (Ac-G[dY]R[dF]S[dN]F[dV]I[dH]WG[βAla]G[Ahx]GK(Biotin)G[Ahx][dS][dV]G[dP]Y[dS]W[dD]D[dS]P[dQ]D[dN]Y[dM]D[dS]-NH2)	> 60000	
CC[C@@H](C)[C@@H](NC(=O)[C@H](NC(=O)[C@@H](Cc1ccccc1)NC(=O)[C@@H](CC(N)=O)NC(=O)[C@@H](CO)NC(=O)[C@@H](Cc1ccccc1)NC(=O)[C@@H](CCCNC(=N)N)NC(=O)[C@@H](Cc1ccc(O)cc1)NC(=O)CNC(C)=O)C(C)C)C(=O)N[C@H](Cc1c[nH]cn1)C(=O)N[C@H](Cc1c[nH]c2ccccc12)C(=O)NCC(=O)NCCC(=O)NCC(=O)NCCCCCC(=O)NCC(=O)N[C@H](CCCCNC(=O)CCCC[C@@H]1SC[C@@H]2NC(=O)N[C@@H]21)C(=O)NCC(=O)NCCCCCC(=O)N[C@H](CO)C(=O)N[C@@H](C(=O)NCC(=O)N1CCC[C@@H]1C(=O)N[C@H](Cc1ccc(O)cc1)C(=O)N[C@H](CO)C(=O)N[C@H](Cc1c[nH]c2ccccc12)C(=O)N[C@H](CC(=O)O)C(=O)N[C@H](CC(=O)O)C(=O)N[C@H](CO)C(=O)N1CCC[C@@H]1C(=O)N[C@H](CCC(N)=O)C(=O)N[C@H](CC(=O)O)C(=O)N[C@H](CC(N)=O)C(=O)N[C@H](Cc1ccc(O)cc1)C(=O)N[C@H](CCSC)C(=O)N[C@H](CC(=O)O)C(=O)N[C@H](CO)C(N)=O)C(C)C [H1H3s‐allD] (Ac-G[dY][dR][dF][dS][dN][dF][dV][dI][dH][dW]G[βAla]G[Ahx]G[dK](Biotin)G[Ahx][dS][dV]G[dP][dY][dS][dW][dD][dD][dS][dP][dQ][dD][dN][dY][dM][dD][dS]-NH2)	1900 ± 400	
CC[C@H](C)[C@H](NC(=O)[C@@H](NC(=O)[C@H](Cc1ccccc1)NC(=O)[C@H](CC(N)=O)NC(=O)[C@H](CO)NC(=O)[C@H](Cc1ccccc1)NC(=O)[C@H](CCCNC(=N)N)NC(=O)[C@H](Cc1ccc(O)cc1)NC(=O)CNC(C)=O)C(C)C)C(=O)N[C@@H](Cc1c[nH]cn1)C(=O)N[C@@H](Cc1c[nH]c2ccccc12)C(=O)NCC(=O)NCCC(=O)NCC(=O)NCCCCCC(=O)NCC(=O)N[C@@H](CCCCNC(=O)CCCC[C@@H]1SC[C@@H]2NC(=O)N[C@@H]21)C(=O)NCC(=O)NCCCCCC(=O)N[C@@H](CO)C(=O)N[C@H](C(=O)NCC(=O)N1CCC[C@H]1C(=O)N[C@@H](Cc1ccc(O)cc1)C(=O)N[C@@H](CO)C(=O)N[C@@H](Cc1c[nH]c2ccccc12)C(=O)N[C@@H](CC(=O)O)C(=O)N[C@@H](CC(=O)O)C(=O)N[C@@H](CO)C(=O)N1CCC[C@H]1C(=O)N[C@@H](CCC(N)=O)C(=O)N[C@@H](CC(=O)O)C(=O)N[C@@H](CC(N)=O)C(=O)N[C@@H](Cc1ccc(O)cc1)C(=O)N[C@@H](CCSC)C(=O)N[C@@H](CC(=O)O)C(=O)N[C@@H](CO)C(N)=O)C(C)C [Peptide H1H3s] (Ac-GYRFSNFVIHWG[βAla]G[Ahx]GK(Biotin)G[Ahx]SVGPYSWDDSPQDNYMDS-NH2)	6300 ± 100	
Ac‐GYRFSNFVIHW‐GB ^b GX ^c G‐K*‐GX‐[CVGPYSWDDSPQDNYMDC]‐NH2 (disulfide) [Peptide H1H3, b12 paratope mimetic peptide presenting heavy chain CDRs H1 and H3, H3 disulfide‐bridged, biotinylated lysine between them]		IC50 (HIV‐1NL4–3 [2]): 1700 nM
